Measurements from ChEMBL document CHEMBL1201862, “PubChem BioAssay data set” (2004).
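Compound exposure: 48 hours, 5 concentrations, 96-well plates. At the GI50, growth is halved.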 Activity calls are given as the source filed them. Rule as the data show it: active = GI50 up to about 1.1 µM and inactive = higher.

How the values were obtained:
Experiment in all cases: NCI anticancer screen, dose series, 48 h
K562 = test system: K562
OVCAR-4 = test system: OVCAR-4
PC-3 = test system: PC-3
A498 = test system: A498
786-0 = test system: 786-0
RPMI-8226 = test system: RPMI-8226
SK-OV-3 = test system: SK-OV-3
MOLT-4 = test system: MOLT-4
MCF7 = test system: MCF7
UO-31 = test system: UO-31
HOP-62 = test system: HOP-62
COLO 205 = test system: COLO 205
Hs-578T = test system: Hs-578T
SNB-75 = test system: SNB-75
OVCAR-3 = test system: OVCAR-3
KM12 = test system: KM12
NCI-H460 = test system: NCI-H460
OVCAR-8 = test system: OVCAR-8
OVCAR-5 = test system: OVCAR-5
LOX IMVI = test system: LOX IMVI
IGROV-1 = test system: IGROV-1
M14 = test system: M14
HOP-92 = test system: HOP-92
A549 = test system: A549
ACHN = test system: ACHN
SNB-19 = test system: SNB-19
NCI-H23 = test system: NCI-H23
SW-620 = test system: SW-620
SF-295 = test system: SF-295
HCT-15 = test system: HCT-15
RXF 393 = test system: RXF 393
HL-60 = test system: HL-60
T47D = test system: T47D
NCI-H226 = test system: NCI-H226
NCI/ADR-RES = test system: NCI/ADR-RES
HCT-116 = test system: HCT-116
CAKI-1 = test system: CAKI-1
MDA-MB-435 = test system: MDA-MB-435
UACC-257 = test system: UACC-257
SK-MEL-2 = test system: SK-MEL-2
SN12C = test system: SN12C
SF-539 = test system: SF-539
MDA-N = test system: MDA-N
HCC 2998 = test system: HCC 2998
U-251 = test system: U-251
BT-549 = test system: BT-549
MDA-MB-231 = test system: MDA-MB-231
HT-29 = test system: HT-29
UACC-62 = test system: UACC-62
SK-MEL-5 = test system: SK-MEL-5
EKVX = test system: EKVX
Malme-3M = test system: Malme-3M
SR = test system: SR
DU-145 = test system: DU-145
NCI-H522 = test system: NCI-H522
SK-MEL-28 = test system: SK-MEL-28
SF-268 = test system: SF-268
TK-10 = test system: TK-10
CCRF-CEM = test system: CCRF-CEM

## COC(=O)[C@H](Cc1ccccc1)NC(=O)c1ccc(CNC(=O)/C=C/c2ccc(OCc3ccccc3)cc2)cc1
K562
  GI50: 12 µM (inactive)
OVCAR-4
  GI50: 6.55 µM (inactive)
PC-3
  GI50: 14.7 µM (inactive)
A498
  GI50: 2.59 µM (inactive)
786-0
  GI50: 5.11 µM (inactive)
RPMI-8226
  GI50: 39 µM (inactive)
SK-OV-3
  GI50: 24.4 µM (inactive)
MOLT-4
  GI50: 6.17 µM (inactive)
MCF7
  GI50: 29.4 µM (inactive)
UO-31
  GI50: 14 µM (inactive)
HOP-62
  GI50: 12.6 µM (inactive)
COLO 205
  GI50: > 73.3 µM (inactive)
Hs-578T
  GI50: 5.66 µM (inactive)
SNB-75
  GI50: 13.8 µM (inactive)
OVCAR-3
  GI50: 10.7 µM (inactive)
KM12
  GI50: 19.1 µM (inactive)
NCI-H460
  GI50: 19.5 µM (inactive)
OVCAR-8
  GI50: 13.3 µM (inactive)
OVCAR-5
  GI50: 38.2 µM (inactive)
LOX IMVI
  GI50: 17.1 µM (inactive)
IGROV-1
  GI50: 2.7 µM (inactive)
M14
  GI50: 2.44 µM (inactive)
HOP-92
  GI50: 2.45 µM (inactive)
A549
  GI50: 27 µM (inactive)
ACHN
  GI50: 14.9 µM (inactive)
SNB-19
  GI50: 15.7 µM (inactive)
NCI-H23
  GI50: 14.5 µM (inactive)
SW-620
  GI50: > 47.4 µM (inactive)
SF-295
  GI50: 18.4 µM (inactive)
HCT-15
  GI50: 40.1 µM
RXF 393
  GI50: 6.34 µM (inactive)
HL-60
  GI50: < 0.01 µM (active)
T47D
  GI50: 18.8 µM (inactive)
NCI-H226
  GI50: 21.3 µM (inactive)
NCI/ADR-RES
  GI50: 30.4 µM (inactive)
HCT-116
  GI50: 25.2 µM (inactive)
CAKI-1
  GI50: 12.1 µM (inactive)
MDA-MB-435
  GI50: 2.62 µM (inactive)
UACC-257
  GI50: 2.49 µM (inactive)
SK-MEL-2
  GI50: 2.55 µM (inactive)
SN12C
  GI50: 13.9 µM (inactive)
SF-539
  GI50: 16.4 µM (inactive)
MDA-N
  GI50: 2.19 µM (inactive)
HCC 2998
  GI50: 24.3 µM (inactive)
U-251
  GI50: 18.1 µM (inactive)
BT-549
  GI50: 21.5 µM (inactive)
MDA-MB-231
  GI50: 16.5 µM (inactive)
HT-29
  GI50: 13.5 µM (inactive)
UACC-62
  GI50: 4.44 µM (inactive)
SK-MEL-5
  GI50: 7.87 µM (inactive)
EKVX
  GI50: 25.7 µM (inactive)
Malme-3M
  GI50: 3.5 µM (inactive)
SR
  GI50: 12.1 µM (inactive)
DU-145
  GI50: 12.4 µM (inactive)
NCI-H522
  GI50: 65.9 µM (inactive)
SK-MEL-28
  GI50: 4.49 µM (inactive)
SF-268
  GI50: 10.8 µM (inactive)
TK-10
  GI50: 13.5 µM (inactive)
CCRF-CEM
  GI50: 17.4 µM (inactive)

## COc1ccc([C@H]2C=C(c3cc(F)c(Cl)cc3Cl)NC(=S)N2)cc1
K562
  GI50: 15.2 µM (inactive)
OVCAR-4
  GI50: 28.3 µM (inactive)
PC-3
  GI50: 19.9 µM (inactive)
A498
  GI50: 28.1 µM (inactive)
786-0
  GI50: 33.6 µM (inactive)
RPMI-8226
  GI50: 21.7 µM (inactive)
SK-OV-3
  GI50: 44.1 µM (inactive)
MOLT-4
  GI50: 17.7 µM (inactive)
MCF7
  GI50: 32.6 µM (inactive)
UO-31
  GI50: 36.6 µM (inactive)
HOP-62
  GI50: 38.6 µM (inactive)
COLO 205
  GI50: 19.1 µM (inactive)
Hs-578T
  GI50: 79.1 µM (inactive)
SNB-75
  GI50: 18.2 µM (inactive)
OVCAR-3
  GI50: 33.7 µM (inactive)
KM12
  GI50: 29.2 µM (inactive)
NCI-H460
  GI50: 20.1 µM (inactive)
OVCAR-8
  GI50: 40.3 µM (inactive)
OVCAR-5
  GI50: 43.1 µM (inactive)
LOX IMVI
  GI50: 37.3 µM (inactive)
IGROV-1
  GI50: 31.4 µM (inactive)
M14
  GI50: 32.5 µM (inactive)
HOP-92
  GI50: 24 µM (inactive)
A549
  GI50: 35.3 µM (inactive)
ACHN
  GI50: 36.9 µM (inactive)
SNB-19
  GI50: 61 µM (inactive)
NCI-H23
  GI50: 37.5 µM (inactive)
SW-620
  GI50: 30.9 µM (inactive)
SF-295
  GI50: 24.3 µM (inactive)
HCT-15
  GI50: 28.7 µM
RXF 393
  GI50: 18.8 µM (inactive)
HL-60
  GI50: 11.3 µM (inactive)
T47D
  GI50: 18.7 µM (inactive)
NCI-H226
  GI50: 56.1 µM (inactive)
NCI/ADR-RES
  GI50: 25.7 µM (inactive)
HCT-116
  GI50: 27 µM (inactive)
CAKI-1
  GI50: 29.4 µM (inactive)
MDA-MB-435
  GI50: 12.8 µM (inactive)
UACC-257
  GI50: 24.9 µM (inactive)
SK-MEL-2
  GI50: 25.1 µM (inactive)
SN12C
  GI50: 21.3 µM (inactive)
SF-539
  GI50: 42.4 µM (inactive)
MDA-N
  GI50: 11.1 µM (inactive)
HCC 2998
  GI50: 23.9 µM (inactive)
U-251
  GI50: 26.7 µM (inactive)
BT-549
  GI50: 32.7 µM (inactive)
MDA-MB-231
  GI50: 27.2 µM (inactive)
HT-29
  GI50: 26.2 µM (inactive)
UACC-62
  GI50: 28.3 µM (inactive)
SK-MEL-5
  GI50: 11.9 µM (inactive)
EKVX
  GI50: 28 µM (inactive)
Malme-3M
  GI50: 40.6 µM (inactive)
SR
  GI50: 5.24 µM (inactive)
DU-145
  GI50: 39.9 µM (inactive)
NCI-H522
  GI50: 31.8 µM (inactive)
SK-MEL-28
  GI50: 47 µM (inactive)
SF-268
  GI50: 48.5 µM (inactive)
TK-10
  GI50: 32.7 µM (inactive)
CCRF-CEM
  GI50: 30.2 µM (inactive)
